Article PMC2785482, “Combined Bezafibrate and Medroxyprogesterone Acetate: Potential Novel Therapy for Acute Myeloid Leukaemia” (PLoS ONE, 2009)

Target: T1, AKR1C3 (Homo sapiens, UniProt P42330)
T1 construct: Recombinant N-terminal His-tagged AKR1C3
Experiment: recombinant AKR1C3 phenanthrenequinone reduction, NADPH absorbance at […] nm
Format: biochemical

T1 sequence (P42330 whole entry): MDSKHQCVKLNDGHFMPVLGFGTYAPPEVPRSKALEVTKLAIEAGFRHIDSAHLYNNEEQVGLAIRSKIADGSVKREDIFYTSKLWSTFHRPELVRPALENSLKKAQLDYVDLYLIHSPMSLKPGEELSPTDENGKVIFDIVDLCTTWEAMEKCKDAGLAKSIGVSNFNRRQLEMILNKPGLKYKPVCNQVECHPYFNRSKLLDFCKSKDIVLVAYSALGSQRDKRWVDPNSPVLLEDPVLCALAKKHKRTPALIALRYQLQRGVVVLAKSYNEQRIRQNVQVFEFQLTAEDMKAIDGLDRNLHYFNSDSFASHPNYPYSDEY

`CC(=O)O[C@]1(C(C)=O)CC[C@H]2[C@@H]3C[C@H](C)C4=CC(=O)CC[C@]4(C)[C@H]3CC[C@@]21C` [MPA, medroxyprogesterone acetate] was tested, and the IC50 was 1100 nM.
